Reference: publication PMC2893881 (Bioorganic & medicinal chemistry, 2010)
Like-named read-outs stand apart in the source and are kept apart here.

Experiments:
[1] = test system: Jurkat cells (clone E6-1); test: Jurkat cell cytotoxicity assay; assay type: cell-based; settings: for Selectivity Index = (IC50 Jurkat) / (IC50 T. brucei): Jurkat vs T. brucei; for IC50: read-out: IC50 (μM) Jurkat
TbCatB = TbCatB (Trypanosoma brucei, UniProt Q6R7Z5); test: Cysteine protease inhibition assay, TbCatB; assay type: biochemical; settings: TbCatB 258 nM, Z-Phe-Arg-AMC 10 μM, pH 5.5
rhodesain = rhodesain (Trypanosoma brucei rhodesiense, UniProt Q95PM0); test: Cysteine protease inhibition assay, rhodesain; assay type: biochemical; settings: for IC50 (μM) Cysteine Protease rho (rhodesain): rhodesain 4 nM, Z-Phe-Arg-AMC 10 μM, pH 5.5
T. brucei brucei = test: Trypanosoma brucei brucei growth inhibition assay; assay type: cell-based; settings: bloodstream forms clone 427-221a, 40 hours, ATP-bioluminescence, ± standard deviation of the mean
animals = settings: cited from earlier work
patients = settings: clinical use, second stage sleeping sickness; cited from earlier work
[2] = test system: human lung carcinoma (A549) cells; settings: at 1 μM; cited from earlier work
[3] = Jurkat cells, 40 hr, ATP-bioluminescence

## CS[C@]1(CO)C(=O)N2[C@H]3C(=CC=C[C@@H]3O)C[C@@]2(SC)C(=O)N1C [Compound 3, bis(methylthio)gliotoxin]
[1]; [3]
  IC50 (μM) Jurkat: not being toxic
TbCatB
  IC50 (μM) Cysteine Protease Tbc (TbcatB): inactivity
rhodesain
  IC50 (μM) Cysteine Protease rho (rhodesain): inactivity

## CS[C@]1(CO)C(=O)N2c3c(O)cccc3C[C@@]2(SC)C(=O)N1C [Compound 4, dehydrobis(methylthio)gliotoxin]
[1]
  Selectivity Index = (IC50 Jurkat) / (IC50 T. brucei): > 15
T. brucei brucei
  IC50 (μM) T. brucei: trypanocidal in the low micromolar range
rhodesain
  IC50 (μM) Cysteine Protease rho (rhodesain): binds to rhodesain

## CS[C@]1(CO)C(=O)N2[C@H]3C(=CC=C[C@@H]3OC(C)=O)C[C@@]2(SC)C(=O)N1C [Compound 7, 6-acetylbis(methylthio)gliotoxin]
[1]
  Selectivity Index = (IC50 Jurkat) / (IC50 T. brucei): > 15
T. brucei brucei
  IC50 (μM) T. brucei: trypanocidal in the low micromolar range
rhodesain
  IC50 (μM) Cysteine Protease rho (rhodesain): binds to rhodesain

## CS[C@]1(Cc2c[nH]c3ccccc23)NC(=O)[C@](CO)(SC)N(C)C1=O [Compound 8, chetoseminudin B]
TbCatB
  IC50 (μM) Cysteine Protease Tbc (TbcatB): inactivity
rhodesain
  IC50 (μM) Cysteine Protease rho (rhodesain): inactivity

## CN1C(=O)[C@]23CC4=CC=C[C@H](O)[C@H]4N2C(=O)[C@@]1(CO)SS3 [Compound 10, gliotoxin, reference compound]
[1]; [3]
  IC50 (μM) Jurkat: substantial toxicity to mammalian cells
[1]
  Selectivity Index = (IC50 Jurkat) / (IC50 T. brucei): low ^g (Toxic to Jurkat cells at <1 μM)
T. brucei brucei
  IC50 (μM) T. brucei: nanomolar activity
TbCatB
  IC50 (μM) Cysteine Protease Tbc (TbcatB): showed inhibition of TbCatB

## CN1C(=O)[C@]23SS[C@@]1(C)C(=O)N2[C@H]1Nc2ccccc2[C@@]1([C@@]12c4ccccc4N[C@@H]1N1C(=O)[C@]4(CO)SS[C@]1(C(=O)N4C)[C@H]2O)[C@@H]3O [Compound 11, verticillin B]
[1]; [3]
  IC50 (μM) Jurkat: substantial toxicity to mammalian cells
[1]
  Selectivity Index = (IC50 Jurkat) / (IC50 T. brucei): low (Toxic to Jurkat cells at <1 μM)
T. brucei brucei
  IC50 (μM) T. brucei: nanomolar activity

## CN1C(=O)[C@@]23C[C@]4([C@]56C[C@@]78SS[C@@](CO)(C(=O)N7[C@H]5Nc5ccccc56)N(C)C8=O)c5ccccc5N[C@@H]4N2C(=O)[C@]1(CO)SS3 [Compound 12, chaetocin]
[1]; [3]
  IC50 (μM) Jurkat: substantial toxicity to mammalian cells
[1]
  Selectivity Index = (IC50 Jurkat) / (IC50 T. brucei): low (Toxic to Jurkat cells at <1 μM)
T. brucei brucei
  IC50 (μM) T. brucei: nanomolar activity

## COc1ccc2c3c4n(c2c1)[C@H](C=C(C)C)OOC(C)(C)C[C@@H]4N1C(=O)[C@@H]2CCCN2C(=O)[C@]1(O)[C@H]3O [Compound 17, verruculogen]
animals
  tremors in animals: cause tremors in animals

## COc1ccc2c3c([nH]c2c1)C(C=C(C)C)N1C(=O)C2CCCN2C(=O)C1(O)C3O (stereo not drawn) [Compound 20, 12,13-dihydroxyfumitremorgin C]
[1]; Homo sapiens, Jurkat, 40 h
  IC50: 97.2 µM
[1]
  Selectivity Index = (IC50 Jurkat) / (IC50 T. brucei): > 15
T. brucei brucei
  IC50 (μM) T. brucei: trypanocidal in the low micromolar range
rhodesain
  IC50: 10.9 µM
  IC50 (μM) Cysteine Protease rho (rhodesain): binds to rhodesain

## Nc1nc(N)nc(Nc2ccc([As]3SCC(CO)S3)cc2)n1 (stereo not drawn) [Compound 25, melarsoprol]
patients
  mortality rate: approximately 5%

## fumitremorgin B [Compound 19]
animals
  tremors in animals: cause tremors in animals
[1]
  Selectivity Index = (IC50 Jurkat) / (IC50 T. brucei): 5.3
[1]; [3]
  IC50: 104 µM
T. brucei brucei; read-out: IC50 (μM) T. brucei
  IC50: 19.5 ± 5.9 µM

## phenylahistin [Compound 2a]
[2]
  cell cycle inhibition activity: cell cycle inhibition activity in the G2/M phase
